Measured values: PMC7139731, “Synthesis, Anticancer Evaluation and Structure-Activity Analysis of Novel (E)- 5-(2-Arylvinyl)-1,3,4-oxadiazol-2-yl)benzenesulfonamides” (International Journal of Molecular Sciences, 2020)
“And” between values parts separate entries of the source, which are not always exact repeats. Identical values can stand only once. Like-named read-outs stand apart in the source and are kept apart here.

What was measured:
[1] = test system: HCT-116 cells (colon cancer); test: MTT cell viability assay, 72 h, HCT-116; type: cell-based, human; conditions: for IC50: MTT assay, 72 h incubation, mean ± SD
Method: (§1) Compounds 7–36 and 47–54 were tested regarding their effect on growth of three human cancer cell lines: colon cancer HCT-116, breast cancer MCF-7 and cervical cancer HeLa, as well as on noncancerous keratinocyte cell line HaCaT. Cell viability was measured with MTT assay after 72 h of incubation with tested compound in five concentration 1–100 μM. The MTT test enables us to quantify the living cells by measuring the activity of mitochondrial enzymes, enables reducing tetrazolium dye MTT to purple formazan. In this manner, IC50—molar concentration [µM] that inhibits 50% net cell growth—was determined (Table 1 and Table 2).
(§2) All chemicals, if not stated otherwise, were obtained from Sigma-Aldrich (St. Louis, MO, USA). The MCF-7, HeLa and HaCaT cell lines were purchased from Cell Lines Services (Eppelheim, Germany), the HCT-116 cell line were obtained from ATCC (ATCC-No: CCL-247). Cells were cultured in Dulbecco’s modified Eagle’s medium (DMEM) supplemented with 10% fetal bovine serum, 2 mM glutamine, 100 units/mL penicillin, and 100 μg/mL streptomycin. Cultures were maintained in a humidified atmosphere with 5% CO2 at 37 °C in an incubator (HeraCell, Heraeus, Langenselbold, Germany). Cell viability was determined using the MTT [3-(4,5-dimethylthiazol-2-yl)-2,5-diphenyl-tetrazolium bromide] assay. Stock solutions of the studied compounds were obtained in 100% DMSO. […] Cells were seeded in 96-well plates at a density of 5 × 10^3 cells/well and treated for 72 h with the examined compounds in the concentration range 1–100 μM (1, 10, 25, 50 and 100 μM). Following treatment, MTT (0.5 mg/mL) was added to the medium and cells were further incubated for 2 h at 37 °C. Cells were lysed with DMSO and the absorbance of the formazan solution was measured at 550 nm with a plate reader Victor 1420 multilabel counter, (PerkinElmer, Inc. Waltham, MA USA). […] The experiment was performed in triplicate. Values are expressed as the mean ± SD of at least three independent experiments

[2] = test system: MCF-7 cells (breast cancer); test: MTT cell viability assay, 72 h, MCF-7; type: cell-based, human; conditions: for IC50: MTT assay, 72 h incubation, mean ± SD
Method: as §1, §2

[3] = test system: HeLa cells (cervical cancer); test: MTT cell viability assay, 72 h, HeLa; type: cell-based, human; conditions: for IC50: MTT assay, 72 h incubation, mean ± SD
Method: as §1, §2

[4] = test system: HaCaT noncancerous keratinocyte cell line; test: MTT cell viability assay, 72 h, HaCaT; type: cell-based; conditions: for IC50: Homo sapiens, HaCaT, MTT assay, 72 h incubation, mean ± SD
Method: as §1, §2

[5] = test system: HaCaT noncancerous keratinocyte cell line; set-up: method as in PMID 28364658; conditions: MTT assay, 72 h incubation; compounds marked [18] ref 18; cited from earlier work

SMILES: N#Cc1ccc(/C=C/c2nnc(-c3cc(S(N)(=O)=O)c(SCc4ccccc4)cc3Cl)o2)cc1 [Compound 20, (E)-2-(Benzylthio)-4-chloro-5-(5-(4-cyanostyryl)-1,3,4-oxadiazol-2-yl)benzenesulfonamide]
- IC50 ([1]; Homo sapiens, HCT-116, 72 h): 9 to 12 µM
- IC50 [1]: 10.3 ± 0.2 µM
- IC50 ([2]; Homo sapiens, MCF7, 72 h): 9 to 12 µM
- IC50 [2]: 8.9 ± 0.5 µM
- IC50 ([3]; Homo sapiens, HeLa, 72 h): 9 to 12 µM
- IC50 [3]: 12.2 ± 0.5 µM
- IC50 [4]: 20 ± 1 µM

SMILES: NS(=O)(=O)c1cc(-c2nnc(/C=C/c3ccc[nH]3)o2)c(Cl)cc1Cl [Compound 36, (E)-5-(5-(2-(1H-Pyrrol-2-yl)vinyl)-1,3,4-oxadiazol-2-yl)-2,4-dichlorobenzenesulfonamide]
- IC50 ([1]; Homo sapiens, HCT-116, 72 h): 39 ± 1 µM
- IC50 ([2]; Homo sapiens, MCF7, 72 h): 40 ± 1 µM
- IC50 ([3]; Homo sapiens, HeLa, 72 h): 73 ± 3 µM
- IC50 [4]: 98 ± 4 µM

SMILES: NS(=O)(=O)c1cc(-c2nnc(/C=C/c3ccc(Br)cc3)o2)c(Cl)cc1Cl [Compound 15, (E)-5-(5-(4-Bromostyryl)-1,3,4-oxadiazol-2-yl)-2,4-dichlorobenzenesulfonamide]
- IC50 ([1]; Homo sapiens, HCT-116, 72 h): 34 ± 1 µM
- IC50 ([2]; Homo sapiens, MCF7, 72 h): 41 ± 1 µM
- IC50 ([3]; Homo sapiens, HeLa, 72 h): 34 ± 2 µM
- IC50 [4]: 55 ± 2 µM

SMILES: NS(=O)(=O)c1cc(-c2nnc(/C=C/c3c(Cl)cccc3Cl)o2)c(Cl)cc1Cl [Compound 13, (E)-2,4-Dichloro-5-(5-(2,6-dichlorostyryl)-1,3,4-oxadiazol-2-yl)benzenesulfonamide]
- IC50 ([1]; Homo sapiens, HCT-116, 72 h): 16 ± 1 µM
- IC50 ([2]; Homo sapiens, MCF7, 72 h): 92 ± 5 µM
- IC50 ([3]; Homo sapiens, HeLa, 72 h): 25 ± 1 µM
- IC50 [4]: 95 ± 2 µM

SMILES: NS(=O)(=O)c1cc(-c2nnc(/C=C/c3ccccc3)o2)c(Cl)cc1SCc1ccccc1 [Compound 8]
- activity against HaCaT compared with cancer lines ([4]; in words): at the same level as against cancer lines
- IC50 [5]: 20 ± 1 µM

SMILES: NS(=O)(=O)c1cc(-c2nnc(/C=C/c3ccc(Br)cc3)o2)c(Cl)cc1SCc1ccccc1 [Compound 16]
- IC50 [5]: 31 ± 1 µM

SMILES: NS(=O)(=O)c1cc(-c2nnc(/C=C/c3ccccn3)o2)c(Cl)cc1SCc1ccccc1 [Compound 28, (E)-2-(Benzylthio)-4-chloro-5-(5-(2-(pyridin-2-yl)vinyl)-1,3,4-oxadiazol-2-yl)benzenesulfonamide]
- IC50 ([1]; Homo sapiens, HCT-116, 72 h): 25 ± 1 µM
- IC50 ([2]; Homo sapiens, MCF7, 72 h): 115 ± 3 µM
- IC50 ([3]; Homo sapiens, HeLa, 72 h): 130 ± 6 µM
- IC50 [4]: 140 ± 10 µM
- melting point: 254 to 257 °C (dec.)

SMILES: NS(=O)(=O)c1cc(-c2nnc(/C=C/c3ccco3)o2)c(Cl)cc1SCc1ccccc1 [Compound 34, (E)-2-(Benzylthio)-4-chloro-5-(5-(2-(furan-2-yl)vinyl)-1,3,4-oxadiazol-2-yl)benzenesulfonamide]
- IC50 ([1]; Homo sapiens, HCT-116, 72 h): 27.8 ± 0.3 µM
- IC50 ([2]; Homo sapiens, MCF7, 72 h): 62 ± 1 µM
- IC50 ([3]; Homo sapiens, HeLa, 72 h): 85 ± 3 µM
- IC50 [4]: 91 ± 3 µM

SMILES: NS(=O)(=O)c1cc(-c2nnc(/C=C/c3c(Cl)cccc3Cl)o2)c(Cl)cc1SCc1ccccc1 [Compound 14]
- IC50 [5]: 160 ± 2 µM

SMILES: NS(=O)(=O)c1ccc(-c2nnc(/C=C/c3ccc(Cl)cc3)o2)cc1 [Compound 48, (E)-4-(5-(4-chlorostyryl)-1,3,4-oxadiazol-2-yl)benzenesulfonamide]
- IC50 ([1]; Homo sapiens, HCT-116, 72 h): 105 ± 5 µM
- IC50 ([2]; Homo sapiens, MCF7, 72 h): 76 ± 4 µM
- IC50 ([3]; Homo sapiens, HeLa, 72 h): 25 ± 3 µM
- IC50 [4]: 95 ± 4 µM

SMILES: NS(=O)(=O)c1cc(-c2nnc(/C=C/c3ccc([N+](=O)[O-])s3)o2)c(Cl)cc1Cl [Compound 31, (E)-2,4-Dichloro-5-(5-(2-(5-nitrothiophen-2-yl)vinyl)-1,3,4-oxadiazol-2-yl)benzenesulfonamide]
- IC50 ([1]; Homo sapiens, HCT-116, 72 h): 0.5 to 4.5 µM
- IC50 [1]: 0.5 µM and 0.52 µM
- increase of activity towards HCT-116 on addition of nitro group (31 vs 29) ([1]; compared with compound 29): over 200 times
- increase of activity towards MCF-7 on addition of nitro group (31 vs 29) ([2]; compared with compound 29): 43 times
- increase of activity towards HeLa on addition of nitro group (31 vs 29) ([3]; compared with compound 29): 54 times
- IC50 [4]: 8.1 ± 0.5 µM

SMILES: NS(=O)(=O)c1cc(-c2nnc(/C=C/c3ccc(O)cc3)o2)c(Cl)cc1Cl [Compound 17, (E)-2,4-Dichloro-5-(5-(4-hydroxystyryl)-1,3,4-oxadiazol-2-yl)benzenesulfonamide]
- IC50 ([1]; Homo sapiens, HCT-116, 72 h): 49 ± 1 µM
- IC50 ([2]; Homo sapiens, MCF7, 72 h): 73 ± 3 µM
- IC50 ([3]; Homo sapiens, HeLa, 72 h): 99 ± 1 µM
- IC50 [4]: 100 ± 5 µM
